This is an account of results in PubChem BioAssay AID266 (DTP/NCI, 2004).

In the experiment the test system is Nude mice, LX-1 lung xenograft intrarenal, tumor weight T/C. As to the kind of experiment: NCI In Vivo Anticancer Drug Screen. Data for tumor model Human Lung LX-1 Xenograft (intrarenal inoculation) in NU/NU BALB/C (nude) mice. The following applies: endpoint: mean tumor weight change, higher = larger tumour. The protocol: The antitumor activity of compounds was measured in mice bearing transplantable tumors. Survival or tumor size were measured and the results are expressed as the measurement made in the treated group (T) divided by the measurement made in the vehicle treated control group (C). The tumor model used in this assay is Human Lung LX-1 Xenograft (intrarenal inoculation) in NU/NU BALB/C (nude) mice

Setting [1] is: dose: 300.0 mg/kg/injection, schedule: Q04DX003 (sc), vehicle: saline with Tween-80.
Where [2] appears, read: dose: 600.0 mg/kg/injection, schedule: Q04DX003 (sc), vehicle: saline with Tween-80.
Where [3] appears, read: dose: 1200.0 mg/kg/injection, schedule: Q04DX003 (sc), vehicle: saline with Tween-80.
The mark [4] stands for this setting: dose: 2400.0 mg/kg/injection, schedule: Q04DX003 (sc), vehicle: saline with Tween-80.
Setting [5] is: dose: 37.5 mg/kg/injection, schedule: Q04DX003 (sc), vehicle: saline.
[6] abbreviates: dose: 50.0 mg/kg/injection, schedule: Q01DX010 (sc), vehicle: saline.
Where [7] appears, read: dose: 200.0 mg/kg/injection, schedule: Q01DX010 (sc), vehicle: saline.
Where [8] appears, read: dose: 25.0 mg/kg/injection, schedule: Q01DX010 (sc), vehicle: saline.
The mark [9] stands for this setting: dose: 200.0 mg/kg/injection, schedule: Q04DX003 (ip), vehicle: saline with Tween-80.

“And” between values parts separate entries of the source, which are not always exact repeats. Equal values may be shown once. Inconclusive results are not listed.

Consider `Cc1cc(NCCCCCCCCNc2cc(C)nc3cc(N(C)C)ccc23)c2ccc(N(C)C)cc2n1`, for which the T/C by setting is: (dose: 37.5 mg/kg/injection, schedule: Q01DX010 (sc), vehicle: distilled water + Tween-80 + alcohol) 51 % of control; (dose: 75.0 mg/kg/injection, schedule: Q04DX003 (sc), vehicle: distilled water + Tween-80 + alcohol) 64 % of control; (dose: 150.0 mg/kg/injection, schedule: Q04DX003 (sc), vehicle: distilled water + Tween-80 + alcohol) 46 % of control; (dose: 300.0 mg/kg/injection, schedule: Q04DX003 (sc), vehicle: distilled water + Tween-80 + alcohol) 13 % of control.

For the compound `C=COC(=O)C(Cc1ccccc1)NC(=O)OCc1ccccc1` (stereo not given), the T/C was 114 % of control under setting [1], 118 % of control under setting [2] and 104 % of control under setting [3].

On to `O=C(Nc1cc(Cl)ccc1C(=O)O)c1cccc(C[n+]2ccccc2)c1`, for which the T/C was 67 % of control (dose: 150.0 mg/kg/injection, schedule: Q04DX003 (ip), vehicle: saline with Tween-80) and 100 % of control (dose: 300.0 mg/kg/injection, schedule: Q04DX003 (ip), vehicle: saline with Tween-80).

For the compound `CC(O)CCC(=O)c1ccoc1` (stereo not given), the T/C was 75 % of control (dose: 15.0 mg/kg/injection, schedule: Q01DX010 (ip), vehicle: saline) and 121 % of control (dose: 30.0 mg/kg/injection, schedule: Q01DX010 (ip), vehicle: saline).

Turning to `Nc1nc(N)c(N=O)c(Nc2ccc(Br)cc2)n1`, the T/C by setting is: under setting [1], 124 % of control; under setting [2], 95 % of control; under setting [3], 229 % of control; under setting [4], 93 % of control.

Take `C[C@@]1(CO)[C@H](O)CC[C@@]2(C)[C@H]1CC[C@H]1C[C@@H]3C[C@@]12CC[C@@]3(O)COC(=O)CN`: the T/C (dose: 100.0 mg/kg/injection, schedule: Q01DX010 (sc), vehicle: saline + alcohol) is 109 % of control and the T/C (dose: 200.0 mg/kg/injection, schedule: Q01DX010 (sc), vehicle: saline + alcohol) is 54 % of control.

With `C[C@@H]1C[C@@H]([C@H](O)CC2CC(=O)NC(=O)C2)C(=O)[C@@H](C)C1`, the T/C runs as follows: (dose: 18.75 mg/kg/injection, schedule: Q04DX003 (sc), vehicle: saline) 94 % of control; under setting [5], 114 % of control; (dose: 75.0 mg/kg/injection, schedule: Q04DX003 (sc), vehicle: saline) 118 % of control; (dose: 150.0 mg/kg/injection, schedule: Q04DX003 (sc), vehicle: saline) 110 % of control.

With `COc1cccc2c1C(=O)c1c(O)c3c(c(O)c1C2=O)C[C@@](O)(C(=O)CO)C[C@@H]3OC1CC(OC(C)=O)C(OC(C)=O)C(C)O1` (stereo not given in full), the T/C (dose: 25.0 mg/kg/injection, schedule: Q01DX010 (sc), vehicle: distilled water + Tween-80) is 53 % of control.

Take `CCCCCc1cc(O)c2c(c1)OC(C)(C)[C@@H]1CCC(C)=C[C@@H]21`: the T/C is, setting by setting: (dose: 150.0 mg/kg/injection, schedule: Q04DX003 (sc), vehicle: other) 94 % of control; (dose: 300.0 mg/kg/injection, schedule: Q04DX003 (sc), vehicle: other) 91 % of control; (dose: 600.0 mg/kg/injection, schedule: Q04DX003 (sc), vehicle: other) 76 % of control; (dose: 1200.0 mg/kg/injection, schedule: Q04DX003 (sc), vehicle: other) 90 % of control.

Regarding `CCOC(=O)c1c[nH]c2oc(/C=N/N3CC(CN4CCOCC4)OC3=O)cc2c1=O` (stereo not given), the T/C is 81 % of control under setting [6] and 118 % of control under setting [7].

With `CN(CO)c1nc(N(C)CO)nc(N(C)CO)n1`, the T/C reads like this: (dose: 6.25 mg/kg/injection, schedule: Q01DX010 (sc), vehicle: saline) 71 % of control; under setting [8], 100 % of control; under setting [6], 122 % of control.

`O=NN(CCCl)C(=O)NCCCl`: the T/C (dose: 4.0 mg/kg/injection, schedule: Q01DX010 (ip), vehicle: saline) was 32 % of control and 48 % of control; the T/C (dose: 13.33 mg/kg/injection, schedule: Q04DX003 (ip), vehicle: saline) was 9 % of control and 10 % of control; the T/C (dose: 16.0 mg/kg/injection, schedule: Q01DX010 (ip), vehicle: saline) was -69 % of control and -87 % of control; the T/C (dose: 26.66 mg/kg/injection, schedule: Q04DX003 (ip), vehicle: saline) is -21 % of control.

As for `O=NN(CCCl)C(=O)NC1OC(CO)C(O)C(O)C1O` (stereo not given), the T/C is 86 % of control (dose: 5.0 mg/kg/injection, schedule: Q04DX003 (sc), vehicle: saline); 55 % of control (dose: 10.0 mg/kg/injection, schedule: Q04DX003 (sc), vehicle: saline); 66 % of control (dose: 20.0 mg/kg/injection, schedule: Q04DX003 (sc), vehicle: saline).

For the compound `CCC1=C[C@H]2CN(CCc3c([nH]c4ccccc34)[C@@](C(=O)OC)(c3cc4c(cc3OC)N(C)[C@H]3[C@@](O)(C(=O)NC)[C@H](OC(C)=O)[C@]5(CC)C=CCN6CC[C@]43[C@@H]65)C2)C1`, where the note is “dose: 1.0 mg/kg/injection, schedule: Q04DX003 (sc), vehicle: water”, the T/C was 30 % of control.

For the compound `C/C(=C\c1ccccc1)[N+](=O)[O-]`, the T/C (dose: 50.0 mg/kg/injection, schedule: Q01DX010 (sc), vehicle: Klucel (hydroxypropylcellulose) (HPC)) was 96 % of control; the T/C (dose: 100.0 mg/kg/injection, schedule: Q01DX010 (sc), vehicle: Klucel (hydroxypropylcellulose) (HPC)) is 97 % of control; the T/C (dose: 200.0 mg/kg/injection, schedule: Q01DX010 (sc), vehicle: Klucel (hydroxypropylcellulose) (HPC)) was 15 % of control.

On to `CN(C)N=Nc1ccc(C(N)=O)cc1`, for which the T/C under setting [9] is -20 % of control and -13 % of control.

For the compound `NC1=NCN(C2OC(CO)C(O)C2O)C(=O)N1` (stereo not given), the T/C under setting [8] is 86 % of control; the T/C under setting [6] was 180 % of control; the T/C (dose: 100.0 mg/kg/injection, schedule: Q01DX010 (sc), vehicle: saline) was 112 % of control; the T/C (dose: 166.66 mg/kg/injection, schedule: Q04DX003 (sc), vehicle: saline) is 158 % of control; the T/C under setting [7] was 84 % of control; the T/C (dose: 333.32 mg/kg/injection, schedule: Q04DX003 (sc), vehicle: saline) was 55 % of control. Also, the T/C (dose: 666.65 mg/kg/injection, schedule: Q04DX003 (sc), vehicle: saline) is 88 % of control.

Take `CC(=O)Oc1[nH]c(=O)c2cccc3c2c1CCC3`: the T/C by setting is: under setting [1], 62 % of control; under setting [2], 68 % of control; under setting [3], 90 % of control; under setting [4], 83 % of control.

`CC1CCC(n2cnc3c(Cl)ncnc32)O1` (stereo not given): where the note is “dose: 300.0 mg/kg/injection, schedule: Q04DX003 (sc), vehicle: Klucel (hydroxypropylcellulose) (HPC)”, the T/C was 81 % of control.

Regarding `CCCCCCCCCCCCCCCCCCOCC(COP(=O)([O-])OCC[N+](C)(C)C)OC` (stereo not given), the T/C under setting [5] is 68 % of control.

For `N=c1ccn2c(n1)OC1C(O)C(CO)OC12` (stereo not given), the T/C by setting is: (dose: 400.0 mg/kg/injection, schedule: Q04DX003 (sc), vehicle: saline) 67 % of control; (dose: 800.0 mg/kg/injection, schedule: Q04DX003 (sc), vehicle: saline) 48 % of control; (dose: 1600.0 mg/kg/injection, schedule: Q04DX003 (sc), vehicle: saline) 16 % of control; (dose: 3200.0 mg/kg/injection, schedule: Q04DX003 (sc), vehicle: saline) 8 % of control.

With `COc1ccc(OC)c(/C=C/c2ccnc3ccccc23)c1`, the T/C is 65 % of control (dose: 50.0 mg/kg/injection, schedule: Q01DX010 (sc), vehicle: saline with Tween-80); 152 % of control (dose: 100.0 mg/kg/injection, schedule: Q01DX010 (sc), vehicle: saline with Tween-80); 251 % of control (dose: 200.0 mg/kg/injection, schedule: Q01DX010 (sc), vehicle: saline with Tween-80); 121 % of control (dose: 400.0 mg/kg/injection, schedule: Q01DX010 (sc), vehicle: saline with Tween-80).

Consider `C[Si](C)(C)O/C=C1\CCCCC1=O`, for which the T/C was 95 % of control (dose: 100.0 mg/kg/injection, schedule: Q04DX003 (sc), vehicle: saline with Tween-80) and 92 % of control (dose: 200.0 mg/kg/injection, schedule: Q04DX003 (sc), vehicle: saline with Tween-80).

For the compound `O=C(CN1CCOCC1)Nc1nc(-c2ccc(Cl)cc2)cs1`, the T/C was 118 % of control (dose: 100.0 mg/kg/injection, schedule: Q04DX003 (ip), vehicle: saline with Tween-80); 87 % of control under setting [9]; 106 % of control (dose: 400.0 mg/kg/injection, schedule: Q04DX003 (ip), vehicle: saline with Tween-80); 89 % of control (dose: 800.0 mg/kg/injection, schedule: Q04DX003 (ip), vehicle: saline with Tween-80).
